Tests used:
[1] = system: HCT116 BRCA2^+/+; experiment: FITC active Caspase-3 apoptosis assay; assay type: cell-based, human
[2] = system: Polθ MMEJ activity (U2OS EJ2-GFP reporter); experiment: MMEJ GFP reporter assay; assay type: cell-based, human; conditions: 10 μM
Description: The GFP MMEJ reporter assay was performed as described. Briefly, U2OS cells carrying one copy of the previously described E2J-GFP MMEJ reporter cassette were sorted for GFP-positive cells followed by treatment with various concentrations of RTX-284 for 24 h before transfection. Pretreated cells were cotransfected with pCMV–3x- NLS-I-SceI or control vector pCMV-3x-NLS and dsRED-Mito cDNA (control for transfection efficiency) using lipofectamine 2000 (Invitrogen). 96 h post-transfection, GFP+ and dsRed+ frequencies were analyzed by flow cytometer (Facscanto, BD). Transfection efficiency was corrected using dsRed+ frequency and % MMEJ was calculated as the ratio of GFP+/dsRed+ cells. Data represent mean of 3 biological replicates ± SD.

[3] = molecular target: T1, PASK(h) (Homo sapiens, UniProt Q96RG2); experiment: Kinase profiling; assay type: biochemical; conditions: mean n=2, read-out: % Activity with 10 µM RTx-303
T1 construct: purchased Eurofins (KinaseProfiler)
Description: (§1) Supplementary Fig. 8 Pharmacological profiling of RTx-303 against kinases.
(§2) % activity of the indicated kinases is shown following incubation with 10 µM RTx-303 in vitro.
(§3) Data represent mean (n = 2).

[4] = molecular target: T2, GRK6(h) (Homo sapiens, UniProt P43250); experiment: Kinase profiling; assay type: biochemical; conditions: mean n=2, read-out: % Activity with 10 µM RTx-303
T2 construct: purchased Eurofins (KinaseProfiler)
Description: as §1, §2, §3

[5] = molecular target: T3, PDHK4(h) (Homo sapiens, UniProt Q16654); experiment: Kinase profiling; assay type: biochemical; conditions: mean n=2, read-out: % Activity with 10 µM RTx-303
T3 construct: purchased Eurofins (KinaseProfiler)
Description: as §1, §2, §3

[6] = molecular target: T4, CDK9/cyclin T1(h) (Homo sapiens, UniProt P50750); experiment: Kinase profiling; assay type: biochemical; conditions: mean n=2, read-out: % Activity with 10 µM RTx-303
T4 construct: purchased Eurofins (KinaseProfiler)
Description: as §1, §2, §3

[7] = molecular target: T5, TSSK2(h) (Homo sapiens, UniProt Q96PF2); experiment: Kinase profiling; assay type: biochemical; conditions: mean n=2, read-out: % Activity with 10 µM RTx-303
T5 construct: purchased Eurofins (KinaseProfiler)
Description: as §1, §2, §3

[8] = molecular target: T6, PEK(h) (Homo sapiens, UniProt Q9NZJ5); experiment: Kinase profiling; assay type: biochemical; conditions: mean n=2, read-out: % Activity with 10 µM RTx-303
T6 construct: purchased Eurofins (KinaseProfiler)
Description: as §1, §2, §3

[9] = molecular target: T7, DYRK3(h) (Homo sapiens, UniProt O43781); experiment: Kinase profiling; assay type: biochemical; conditions: mean n=2, read-out: % Activity with 10 µM RTx-303
T7 construct: purchased Eurofins (KinaseProfiler)
Description: as §1, §2, §3

[10] = molecular target: T8, TTBK1(h) (Homo sapiens, UniProt Q5TCY1); experiment: Kinase profiling; assay type: biochemical; conditions: mean n=2, read-out: % Activity with 10 µM RTx-303
T8 construct: purchased Eurofins (KinaseProfiler)
Description: as §1, §2, §3

[11] = molecular target: T9, DNA-PK(h) (Homo sapiens, UniProt P78527); experiment: Kinase profiling; assay type: biochemical; conditions: mean n=2, read-out: % Activity with 10 µM RTx-303
T9 construct: purchased Eurofins (KinaseProfiler)
Description: as §1, §2, §3

[12] = molecular target: T10, PKCζ(h) (Homo sapiens, UniProt Q05513); experiment: Kinase profiling; assay type: biochemical; conditions: mean n=2, read-out: % Activity with 10 µM RTx-303
T10 construct: purchased Eurofins (KinaseProfiler)
Description: as §1, §2, §3

[13] = molecular target: T11, ChaK1(h) (Homo sapiens, UniProt Q96QT4); experiment: Kinase profiling; assay type: biochemical; conditions: mean n=2, read-out: % Activity with 10 µM RTx-303
T11 construct: purchased Eurofins (KinaseProfiler)
Description: as §1, §2, §3

[14] = molecular target: T12, MLK4(h) (Homo sapiens, UniProt Q5TCX8); experiment: Kinase profiling; assay type: biochemical; conditions: mean n=2, read-out: % Activity with 10 µM RTx-303
T12 construct: purchased Eurofins (KinaseProfiler)
Description: as §1, §2, §3

[15] = molecular target: T13, CDK17/cyclinY(h) (Homo sapiens, UniProt Q00537); experiment: Kinase profiling; assay type: biochemical; conditions: mean n=2, read-out: % Activity with 10 µM RTx-303
T13 construct: purchased Eurofins (KinaseProfiler)
Description: as §1, §2, §3

[16] = molecular target: T14, TSSK4(h) (Homo sapiens, UniProt Q6SA08); experiment: Kinase profiling; assay type: biochemical; conditions: mean n=2, read-out: % Activity with 10 µM RTx-303
T14 construct: purchased Eurofins (KinaseProfiler)
Description: as §1, §2, §3

[17] = molecular target: T15, CDK2/cyclinE(h) (Homo sapiens, UniProt P24941); experiment: Kinase profiling; assay type: biochemical; conditions: mean n=2, read-out: % Activity with 10 µM RTx-303
T15 construct: purchased Eurofins (KinaseProfiler)
Description: as §1, §2, §3

[18] = molecular target: T16, TTBK2(h) (Homo sapiens, UniProt Q6IQ55); experiment: Kinase profiling; assay type: biochemical; conditions: mean n=2, read-out: % Activity with 10 µM RTx-303
T16 construct: purchased Eurofins (KinaseProfiler)
Description: as §1, §2, §3

[19] = molecular target: T17, eEF-2K(h) (Homo sapiens, UniProt O00418); experiment: Kinase profiling; assay type: biochemical; conditions: mean n=2, read-out: % Activity with 10 µM RTx-303
T17 construct: purchased Eurofins (KinaseProfiler)
Description: as §1, §2, §3

[20] = molecular target: T18, TAF1L(h) (Homo sapiens, UniProt Q8IZX4); experiment: Kinase profiling; assay type: biochemical; conditions: mean n=2, read-out: % Activity with 10 µM RTx-303
T18 construct: purchased Eurofins (KinaseProfiler)
Description: as §1, §2, §3

[21] = molecular target: T19, GRK5(h) (Homo sapiens, UniProt P34947); experiment: Kinase profiling; assay type: biochemical; conditions: mean n=2, read-out: % Activity with 10 µM RTx-303
T19 construct: purchased Eurofins (KinaseProfiler)
Description: as §1, §2, §3

[22] = molecular target: T20, PDHK2(h) (Homo sapiens, UniProt Q15119); experiment: Kinase profiling; assay type: biochemical; conditions: mean n=2, read-out: % Activity with 10 µM RTx-303
T20 construct: purchased Eurofins (KinaseProfiler)
Description: as §1, §2, §3

[23] = molecular target: T21, CDK2/cyclinA(h) (Homo sapiens, UniProt P24941); experiment: Kinase profiling; assay type: biochemical; conditions: mean n=2, read-out: % Activity with 10 µM RTx-303
T21 construct: purchased Eurofins (KinaseProfiler)
Description: as §1, §2, §3

[24] = molecular target: T22, CDK18/cyclinY(h) (Homo sapiens, UniProt Q07002); experiment: Kinase profiling; assay type: biochemical; conditions: mean n=2, read-out: % Activity with 10 µM RTx-303
T22 construct: purchased Eurofins (KinaseProfiler)
Description: as §1, §2, §3

[25] = molecular target: T23, VRK1(h) (Homo sapiens, UniProt Q99986); experiment: Kinase profiling; assay type: biochemical; conditions: mean n=2, read-out: % Activity with 10 µM RTx-303
T23 construct: purchased Eurofins (KinaseProfiler)
Description: as §1, §2, §3

[26] = molecular target: T24, A-Raf(h) (Homo sapiens, UniProt P10398); experiment: Kinase profiling; assay type: biochemical; conditions: mean n=2, read-out: % Activity with 10 µM RTx-303
T24 construct: purchased Eurofins (KinaseProfiler)
Description: as §1, §2, §3

[27] = molecular target: T25, CDK14/cyclinY(h) (Homo sapiens, UniProt O94921); experiment: Kinase profiling; assay type: biochemical; conditions: mean n=2, read-out: % Activity with 10 µM RTx-303
T25 construct: purchased Eurofins (KinaseProfiler)
Description: as §1, §2, §3

[28] = molecular target: T26, MAPKAP-K3(h) (Homo sapiens, UniProt Q16644); experiment: Kinase profiling; assay type: biochemical; conditions: mean n=2, read-out: % Activity with 10 µM RTx-303
T26 construct: purchased Eurofins (KinaseProfiler)
Description: as §1, §2, §3

[29] = molecular target: T27, CDK3/cyclinE(h) (Homo sapiens, UniProt Q00526); experiment: Kinase profiling; assay type: biochemical; conditions: mean n=2, read-out: % Activity with 10 µM RTx-303
T27 construct: purchased Eurofins (KinaseProfiler)
Description: as §1, §2, §3

[30] = Tolerability, mouse body weight; assay type: in vivo, BALB/c mice; conditions: 200 mg/kg, bid, mice
Description: Fema le , Ve hicl e, - mg/k g, p.o., BID x 7DFemale, vehicle (n=2)
Fema le , RTx- 30 3, 15 0mg/k g, p.o., BI D x 7 DFemale, RTx-303, 150 mg/kg (po,bid)(n=2)
Fema le , RTx- 30 3, 20 0mg/k g, p.o., BI D x 7 D
Female, RTx-303, 200 mg/kg (po,bid)(n=2)
30 Male , V ehic le, -mg/ kg, p.o. , BID x 7D
Male , RTx-30 3, 15 0mg/k g, p.o., BID x 7DMale, RTx-303, 150 mg/kg (po,bid)(n=2)
20 Male , RTx-30 3, 20 0mg/k g, p.o., BID x 7DMale, RTx-303, 200 mg/kg (po,bid)(n=2)
Days after the start of treatment
Supplementary Fig. 12 Effect of RTx-303 on mouse body weight.
Scatter plot showing % body weight change following administration of the indicated
concentrations of RTx-303 in male and female BALB/c mice. Data represent mean (n=2).

T3 sequence (Q16654 whole entry): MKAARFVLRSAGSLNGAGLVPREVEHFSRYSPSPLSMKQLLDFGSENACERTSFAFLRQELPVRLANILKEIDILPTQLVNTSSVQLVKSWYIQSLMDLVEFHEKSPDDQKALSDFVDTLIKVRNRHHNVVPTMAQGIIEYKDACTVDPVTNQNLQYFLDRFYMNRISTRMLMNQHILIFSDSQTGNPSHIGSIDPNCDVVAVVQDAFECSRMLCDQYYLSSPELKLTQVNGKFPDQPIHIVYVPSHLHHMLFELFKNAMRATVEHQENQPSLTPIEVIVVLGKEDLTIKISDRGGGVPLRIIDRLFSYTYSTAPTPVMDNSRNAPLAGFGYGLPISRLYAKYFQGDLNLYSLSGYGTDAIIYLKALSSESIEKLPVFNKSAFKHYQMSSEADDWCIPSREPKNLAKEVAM
T10 sequence (Q05513 whole entry): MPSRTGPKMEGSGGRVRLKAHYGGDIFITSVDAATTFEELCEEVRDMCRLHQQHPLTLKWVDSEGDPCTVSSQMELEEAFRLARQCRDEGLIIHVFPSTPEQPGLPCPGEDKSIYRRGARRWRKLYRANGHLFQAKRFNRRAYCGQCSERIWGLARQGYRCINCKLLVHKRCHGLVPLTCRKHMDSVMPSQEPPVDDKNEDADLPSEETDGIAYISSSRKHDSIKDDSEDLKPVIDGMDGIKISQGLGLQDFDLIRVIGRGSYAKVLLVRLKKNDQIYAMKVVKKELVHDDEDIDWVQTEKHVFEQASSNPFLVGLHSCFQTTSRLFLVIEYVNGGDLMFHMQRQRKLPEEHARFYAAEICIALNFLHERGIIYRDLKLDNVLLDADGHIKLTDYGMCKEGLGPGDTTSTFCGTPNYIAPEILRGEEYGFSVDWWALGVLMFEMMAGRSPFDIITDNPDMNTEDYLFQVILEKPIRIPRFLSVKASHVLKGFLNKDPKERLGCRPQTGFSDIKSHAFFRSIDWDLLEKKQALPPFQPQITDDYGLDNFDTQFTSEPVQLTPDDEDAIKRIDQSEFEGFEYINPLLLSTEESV
T11 sequence (Q96QT4 whole entry): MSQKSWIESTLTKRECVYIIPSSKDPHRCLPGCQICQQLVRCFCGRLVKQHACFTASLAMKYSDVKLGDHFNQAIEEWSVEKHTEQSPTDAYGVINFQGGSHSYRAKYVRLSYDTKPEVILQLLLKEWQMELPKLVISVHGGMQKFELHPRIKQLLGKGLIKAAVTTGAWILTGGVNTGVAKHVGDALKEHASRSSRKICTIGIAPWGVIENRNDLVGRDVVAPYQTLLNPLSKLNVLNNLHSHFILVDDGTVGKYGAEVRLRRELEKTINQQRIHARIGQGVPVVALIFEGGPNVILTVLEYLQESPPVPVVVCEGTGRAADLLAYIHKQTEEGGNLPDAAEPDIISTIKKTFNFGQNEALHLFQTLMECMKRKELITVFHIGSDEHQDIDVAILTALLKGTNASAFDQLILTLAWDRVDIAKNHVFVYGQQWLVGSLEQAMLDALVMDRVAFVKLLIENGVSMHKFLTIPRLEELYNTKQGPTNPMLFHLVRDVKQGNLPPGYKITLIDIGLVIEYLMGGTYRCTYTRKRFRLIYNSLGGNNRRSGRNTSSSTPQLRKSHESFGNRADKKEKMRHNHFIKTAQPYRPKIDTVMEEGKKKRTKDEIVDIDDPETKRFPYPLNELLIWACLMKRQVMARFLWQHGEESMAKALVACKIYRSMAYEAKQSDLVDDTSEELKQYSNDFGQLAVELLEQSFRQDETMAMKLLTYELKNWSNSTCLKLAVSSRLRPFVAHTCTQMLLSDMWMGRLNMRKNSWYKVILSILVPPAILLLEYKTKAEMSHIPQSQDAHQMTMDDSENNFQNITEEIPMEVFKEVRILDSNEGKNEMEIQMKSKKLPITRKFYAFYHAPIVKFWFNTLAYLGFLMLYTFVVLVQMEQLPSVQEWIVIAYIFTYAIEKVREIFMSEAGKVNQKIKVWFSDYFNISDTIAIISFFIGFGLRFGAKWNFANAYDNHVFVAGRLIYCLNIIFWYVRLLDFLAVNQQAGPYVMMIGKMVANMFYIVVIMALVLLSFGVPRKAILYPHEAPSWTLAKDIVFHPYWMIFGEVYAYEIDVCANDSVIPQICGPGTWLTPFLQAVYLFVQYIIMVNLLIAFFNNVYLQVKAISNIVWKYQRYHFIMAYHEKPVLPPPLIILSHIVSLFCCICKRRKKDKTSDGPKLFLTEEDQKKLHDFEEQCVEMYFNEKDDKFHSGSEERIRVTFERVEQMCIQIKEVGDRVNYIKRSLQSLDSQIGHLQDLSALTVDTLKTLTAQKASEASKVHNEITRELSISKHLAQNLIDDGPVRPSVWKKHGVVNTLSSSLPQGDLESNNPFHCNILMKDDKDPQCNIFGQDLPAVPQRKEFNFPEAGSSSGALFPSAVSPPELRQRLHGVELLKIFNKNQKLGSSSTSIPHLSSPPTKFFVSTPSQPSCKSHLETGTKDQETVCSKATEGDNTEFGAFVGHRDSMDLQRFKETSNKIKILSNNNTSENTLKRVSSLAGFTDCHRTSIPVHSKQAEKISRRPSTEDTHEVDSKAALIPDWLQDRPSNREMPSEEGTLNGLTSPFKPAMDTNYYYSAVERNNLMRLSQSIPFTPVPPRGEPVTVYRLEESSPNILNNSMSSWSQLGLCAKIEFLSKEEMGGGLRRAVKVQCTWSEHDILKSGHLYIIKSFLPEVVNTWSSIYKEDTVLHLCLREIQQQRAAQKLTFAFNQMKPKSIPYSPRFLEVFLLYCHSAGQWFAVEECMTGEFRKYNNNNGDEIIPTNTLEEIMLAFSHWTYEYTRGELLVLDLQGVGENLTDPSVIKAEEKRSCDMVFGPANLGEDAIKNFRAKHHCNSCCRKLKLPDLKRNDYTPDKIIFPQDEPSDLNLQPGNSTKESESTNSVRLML
T27 sequence (Q00526 whole entry): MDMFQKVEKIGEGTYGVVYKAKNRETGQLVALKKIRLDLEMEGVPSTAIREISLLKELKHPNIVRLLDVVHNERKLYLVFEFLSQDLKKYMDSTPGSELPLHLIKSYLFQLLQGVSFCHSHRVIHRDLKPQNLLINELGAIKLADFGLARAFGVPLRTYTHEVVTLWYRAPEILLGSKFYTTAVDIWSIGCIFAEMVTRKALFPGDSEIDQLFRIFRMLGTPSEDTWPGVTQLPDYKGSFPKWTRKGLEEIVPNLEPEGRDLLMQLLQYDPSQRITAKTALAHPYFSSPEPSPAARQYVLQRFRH
T27 sequence (P24864 whole entry, further chain): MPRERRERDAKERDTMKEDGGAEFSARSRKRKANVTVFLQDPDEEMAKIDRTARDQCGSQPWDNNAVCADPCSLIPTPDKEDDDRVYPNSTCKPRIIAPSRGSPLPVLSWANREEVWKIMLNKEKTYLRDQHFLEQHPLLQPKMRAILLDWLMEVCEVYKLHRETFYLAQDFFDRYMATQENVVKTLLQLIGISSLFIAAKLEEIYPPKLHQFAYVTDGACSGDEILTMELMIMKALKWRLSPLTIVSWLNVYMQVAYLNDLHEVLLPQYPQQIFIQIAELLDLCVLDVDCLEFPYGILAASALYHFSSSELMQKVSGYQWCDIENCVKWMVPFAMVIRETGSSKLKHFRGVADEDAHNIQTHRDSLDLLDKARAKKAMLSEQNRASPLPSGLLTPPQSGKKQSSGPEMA
T23 sequence (Q99986 whole entry): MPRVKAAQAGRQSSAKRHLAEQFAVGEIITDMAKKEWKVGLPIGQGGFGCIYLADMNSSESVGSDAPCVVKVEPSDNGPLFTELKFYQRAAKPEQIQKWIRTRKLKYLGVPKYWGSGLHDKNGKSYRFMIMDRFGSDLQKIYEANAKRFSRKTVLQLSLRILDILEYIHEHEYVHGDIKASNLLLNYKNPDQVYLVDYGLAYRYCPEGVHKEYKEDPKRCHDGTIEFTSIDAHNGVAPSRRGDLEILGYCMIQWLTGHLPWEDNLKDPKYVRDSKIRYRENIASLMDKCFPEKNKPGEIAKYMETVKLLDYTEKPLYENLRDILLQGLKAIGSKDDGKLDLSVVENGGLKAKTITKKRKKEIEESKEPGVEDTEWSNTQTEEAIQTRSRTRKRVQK
T12 sequence (Q5TCX8 whole entry): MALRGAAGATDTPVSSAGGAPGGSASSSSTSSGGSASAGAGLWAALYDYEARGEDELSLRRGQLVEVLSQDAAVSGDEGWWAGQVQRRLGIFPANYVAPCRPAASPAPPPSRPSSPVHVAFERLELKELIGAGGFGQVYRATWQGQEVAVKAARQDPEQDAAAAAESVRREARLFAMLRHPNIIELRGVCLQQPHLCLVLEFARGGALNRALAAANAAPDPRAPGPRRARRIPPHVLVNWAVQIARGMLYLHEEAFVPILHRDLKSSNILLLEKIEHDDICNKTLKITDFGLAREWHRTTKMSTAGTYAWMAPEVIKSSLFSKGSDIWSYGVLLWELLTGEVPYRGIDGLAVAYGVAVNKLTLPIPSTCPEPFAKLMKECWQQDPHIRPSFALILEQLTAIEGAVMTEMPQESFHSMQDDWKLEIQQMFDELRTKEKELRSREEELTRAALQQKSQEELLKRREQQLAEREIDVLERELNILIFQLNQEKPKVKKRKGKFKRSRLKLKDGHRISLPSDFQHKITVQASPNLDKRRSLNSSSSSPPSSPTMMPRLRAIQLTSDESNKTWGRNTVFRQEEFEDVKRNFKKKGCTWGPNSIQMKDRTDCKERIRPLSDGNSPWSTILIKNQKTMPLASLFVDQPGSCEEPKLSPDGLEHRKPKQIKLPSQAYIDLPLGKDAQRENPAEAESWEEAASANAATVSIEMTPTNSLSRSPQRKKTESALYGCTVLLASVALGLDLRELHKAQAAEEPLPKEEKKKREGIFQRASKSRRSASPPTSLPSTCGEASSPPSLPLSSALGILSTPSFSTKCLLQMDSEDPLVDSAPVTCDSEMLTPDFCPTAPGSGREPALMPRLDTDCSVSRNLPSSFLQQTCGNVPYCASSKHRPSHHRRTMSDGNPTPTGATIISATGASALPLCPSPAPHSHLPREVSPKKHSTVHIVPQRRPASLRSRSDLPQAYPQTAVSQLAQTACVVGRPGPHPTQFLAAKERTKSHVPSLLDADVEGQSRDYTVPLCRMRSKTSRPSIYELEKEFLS

Compound: [2H]C([2H])([2H])N(C(=O)Oc1c(N2CCN(CC(O)CN(C)C)C2=O)cc(C(F)(F)F)cc1C(F)(F)F)c1ccc(F)cc1 (stereo not drawn) [RTx-284, 2-{3-[3-(Dimethylamino)-2-hydroxypropyl]-2-oxoimidazolidin-1-yl}-4,6-bis(trifluoromethyl)phenyl N-(4-fluorophenyl)-N-(methyl-d3)-carbamate]
- % Cells, FITC Caspase-3 Negative ([1]; 5 μM): 98%
- % Cells, FITC Caspase-3 Positive ([1]; 5 μM): 2%
- % Cells, FITC Caspase-3 Negative ([1]; 10 μM): 97%
- % Cells, FITC Caspase-3 Positive ([1]; 10 μM): 3%
- inhibition of Polθ MMEJ activity in cells (MMEJ GFP reporter) [2]: significantly inhibits

Compound: [2H]C([2H])([2H])N(C(=O)Oc1c(N2CCN(C[C@H](O)CN(C)C)C2=O)cc(C(F)(F)F)cc1C(F)(F)F)c1ccc(F)cc1 [RTx-303]
- activity at 10 µM [3]: 75%
- activity at 10 µM [4]: 90%
- activity at 10 µM [5]: 93%
- activity at 10 µM [6]: 119%
- activity at 10 µM [7]: 102%
- activity at 10 µM [8]: 104%
- activity at 10 µM [9]: 113%
- activity at 10 µM [10]: 101%
- activity at 10 µM [11]: 94%
- activity at 10 µM [12]: 102%
- activity at 10 µM [13]: 102%
- activity at 10 µM [14]: 109%
- activity at 10 µM [15]: 110%
- activity at 10 µM [16]: 117%
- activity at 10 µM [17]: 109%
- activity at 10 µM [18]: 99%
- activity at 10 µM [19]: 94%
- activity at 10 µM [20]: 95%
- activity at 10 µM [21]: 103%
- activity at 10 µM [22]: 98%
- activity at 10 µM [23]: 100%
- activity at 10 µM [24]: 89%
- activity at 10 µM [25]: 92%
- activity at 10 µM [26]: 105%
- activity at 10 µM [27]: 105%
- activity at 10 µM [28]: 98%
- activity at 10 µM [29]: 114%
- body weight and health signs at high dose [30]: no significant body weight loss or unhealthy signs

Source: article PMC12621202, “RTx-303, an Orally Bioavailable Polθ Polymerase Inhibitor That Potentiates PARP Inhibitors in BRCA Mutant Tumors” (Journal of Medicinal Chemistry, 2025)
